Experimental data: ChEMBL document CHEMBL6134876, “End-to-End Backbone Cyclization Enhances Passive Permeability of bRo5 Oligomeric Depsipeptides with Nonlinear Size Dependence” (ACS Med Chem Lett, 2025)
Starred links: 1 amine or outer side, 2 acyl side, 3 side chain; linkers in the order of their positions; H or OH if unused. Non-standard residues stand in square brackets, D forms with d. Residues, ends and D or L forms follow the SMILES beside them. X1 = CCCCC[C@H](O[*:1])C(=O)[*:2]; Ahp(2) = CCCCC[C@H](N)C(=O)O; dNMeA = CN[C@H](C)C(=O)O

How the values were obtained:
Format in all cases: ADME
[1] = Permeability of compound assessed as compound recovery incubated for 14 to 18 hrs by PAMPA; conditions: time 14-18 hrs, read-out: Drug recovery
[2] = Permeability of compound assessed as compound diffusion incubated for 14 to 18 hrs by PAMPA; conditions: time 14-18 hrs
[3] = Apparent permeability of compound incubated for 14 to 18 hrs by PAMPA; conditions: time 14-18 hrs

recovery [1] [%] | Activity [2] [%] | Papp [3] | logPapp [3] | SMILES
89 | 12 |  |  | CCCCC[C@H](NC(=O)[C@@H](C)N(C)C(=O)[C@H](CCCCC)NC(=O)[C@@H](C)N(C)C(=O)[C@H](CCCCC)NC(=O)[C@@H](C)N(C)C(=O)[C@H](CCCCC)OC(=O)[C@@H](C)N(C)C(=O)OC(C)(C)C)C(=O)OCc1ccccc1
93 |  |  |  | CCCCC[C@H](NC(=O)[C@@H](C)N(C)C(=O)[C@H](CCCCC)OC(=O)[C@@H](C)N(C)C(=O)[C@H](CCCCC)OC(=O)[C@@H](C)N(C)C(=O)[C@H](CCCCC)OC(=O)[C@@H](C)N(C)C(=O)OC(C)(C)C)C(=O)OCc1ccccc1

Continued, molecule first:

SMILES | recovery [1] [%] | Activity [2] [%] | Papp [3] | logPapp [3]
CCCCC[C@H](OC(=O)[C@@H](C)N(C)C(=O)[C@H](CCCCC)OC(=O)[C@@H](C)N(C)C(=O)[C@H](CCCCC)OC(=O)[C@@H](C)N(C)C(=O)[C@H](CCCCC)OC(=O)[C@@H](C)N(C)C(=O)[C@H](CCCCC)OC(=O)[C@@H](C)N(C)C(=O)[C@H](CCCCC)OC(=O)[C@@H](C)N(C)C(=O)OC(C)(C)C)C(=O)OCc1ccccc1 |  | < 5 | Below_limit_of_detection | Below_limit_of_detection
CCCCC[C@H](NC(=O)[C@@H](C)N(C)C(=O)[C@H](CCCCC)NC(=O)[C@@H](C)N(C)C(=O)[C@H](CCCCC)OC(=O)[C@@H](C)N(C)C(=O)[C@H](CCCCC)OC(=O)[C@@H](C)N(C)C(=O)OC(C)(C)C)C(=O)OCc1ccccc1 | 92 |  |  | 
CCCCC[C@@H]1NC(=O)[C@@H](C)N(C)C(=O)[C@H](CCCCC)OC(=O)[C@@H](C)N(C)C(=O)[C@H](CCCCC)NC(=O)[C@@H](C)N(C)C(=O)[C@H](CCCCC)OC(=O)[C@@H](C)N(C)C1=O (cyclo([Ahp(2)][dNMeA][X1][dNMeA][Ahp(2)][dNMeA][X1][dNMeA])) |  | 25 |  | 
